One may read the melting point as the temperature of the solid-liquid transition.

human NK1 receptors, sequence (P25103 whole entry): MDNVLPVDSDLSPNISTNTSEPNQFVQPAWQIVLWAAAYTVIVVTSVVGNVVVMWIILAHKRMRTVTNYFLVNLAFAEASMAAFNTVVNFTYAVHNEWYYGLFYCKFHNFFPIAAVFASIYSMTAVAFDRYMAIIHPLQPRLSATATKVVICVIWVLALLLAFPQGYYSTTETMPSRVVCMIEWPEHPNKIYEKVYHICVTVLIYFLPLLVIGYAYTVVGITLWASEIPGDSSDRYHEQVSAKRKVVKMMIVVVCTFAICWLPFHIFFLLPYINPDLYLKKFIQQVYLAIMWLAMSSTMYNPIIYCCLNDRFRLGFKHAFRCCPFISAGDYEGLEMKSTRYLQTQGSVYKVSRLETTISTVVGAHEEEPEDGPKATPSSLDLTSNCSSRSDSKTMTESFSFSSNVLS

One series addresses human NK1 receptors (Homo sapiens, UniProt P25103). The series is described as follows: Affinity for the NK1 receptor, [3H]substance P displacement binding assay. Conditions: human NK1 receptors in CHO cells (Semliki virus expression system); [3H]substance P 0.6 nM; 60 min at room temperature. How it is done:
The affinity of test compounds for the NK1 receptor was evaluated at human NK1 receptors in CHO cells infected with the human NK1 receptor (using the Semliki virus expression system) and radiolabelled with [^3H]substance P (final concentration 0.6 nM). Binding assays were performed in HEPES buffer (50 mM, pH 7.4) containing BSA (0.04%) leupeptin (8 μg/ml), MnCl2 (3 mM) and phosphoramidon (2 μM). Binding assays consisted of 250 μl of membrane suspension (1.25×10^5 cells/assay tube), […] of buffer of displacing agent and 125 μl of [^3H]substance P. Displacement curves were determined with at least seven concentrations of the compound. The assay tubes were incubated for 60 min at room temperature after which time the tube contents were rapidly filtered under vacuum through GF/C filters presoaked for 60 min with PEI (0.3%) with 2×2 ml washes of HEPES buffer (50 mM, pH 7.4). The radioactivity retained on the filters was measured by scintillation counting. All assays were performed in triplicate in at least 2 separate experiments.
For the compound `Cc1ccccc1N1CN(Cc2cccnc2)C(=O)C12CCN(C(=O)c1cc(C(F)(F)F)cc(C(F)(F)F)c1)CC2` [Example 45, 8-(3,5-Bis-trifluoromethyl-benzoyl)-3-pyridin-3-yl-methyl-1-o-tolyl-1,3,8-triaza-spiro[4.5]decan-4-one], the “pKi (affinity to the NK-1 receptor)” value was found to be 8.29.

Turning to “Rac-8-(3,5-Bis-trifluoromethyl-benzoyl)-3-(2-methoxy-ethyl)-2-methyl-1-o-tolyl-1,3,8-triaza-spiro[4.5]decan-4-one [Example 137]”, the “pKi (affinity to the NK-1 receptor)” value turned out to be 8.34.

Staying with this series, now noted: human NK1 receptors in CHO cells (Semliki virus expression system); [3H]substance P 0.6 nM; 60 min at room temperature; read-out: pKi (affinity to the NK-1 receptor) (converted).
Take `CC1NC(=O)C2(CCN(C(=O)c3cc(C(F)(F)F)cc(C(F)(F)F)c3)CC2)N1c1ccccc1` (racemic) [Example 91, (rac)-8-(3,5-Bis-trifluoromethyl-benzoyl)-2-methyl-1-phenyl-1,3,8-triaza-spiro[4.5]decan-4-one]: the Ki was 7.59 nM.

`Cc1ccccc1C1CNC(=O)C12CCN(C(=O)c1cc(C(F)(F)F)cc(C(F)(F)F)c1)CC2` (racemic) [Example 176, (rac)-8-(3,5-Bis-trifluoromethyl-benzoyl)-4-o-tolyl-2,8-diaza-spiro[4.5]decan-1-one]: the Ki was 7.59 nM.

For the compound `COc1nc(OC)nc(N2CN(c3ccccc3)C3(CCN(C(=O)c4cc(C(F)(F)F)cc(C(F)(F)F)c4)CC3)C2=O)n1` [Example 6, 8-(3,5-Bis-trifluoromethyl-benzoyl)-3-(4,6-dimethoxy-[1,3,5]triazin-2-yl)-1-phenyl-1,3,8-triaza-spiro[4.5]decan-4-one], the Ki was 2.19 nM.

As to `O=C(c1cc(C(F)(F)F)cc(C(F)(F)F)c1)N1CCC2(CC1)C(=O)N(c1ncc(Cl)cc1Cl)CN2c1ccccc1` [Example 26, 8-(3,5-Bis-trifluoromethyl-benzoyl)-3-(3,5-dichloro-pyridin-2-yl)-1-phenyl-1,3,8-triaza-spiro[4.5]decan-4-one], the Ki is 33.9 nM.

Take `COc1nc(OC)nc(N2CN(c3ccc(Cl)c(Cl)c3)C3(CCN(C(=O)c4cc(C(F)(F)F)cc(C(F)(F)F)c4)CC3)C2=O)n1` [Example 39, 8-(3,5-Bis-trifluoromethyl-benzoyl)-1-(3,4-dichloro-phenyl)-3-(4,6-dimethoxy-[1,3,5]triazin-2-yl)-1,3,8-triaza-spiro[4.5]decan-4-one]: the Ki is 93.3 nM.

On to `Cc1ccccc1N1CN(CCN2CCCC2)C(=O)C12CCN(C(=O)c1cc(C(F)(F)F)cc(C(F)(F)F)c1)CC2` [Example 58, 8-(3,5-Bis-trifluoromethyl-benzoyl)-3-(2-pyrrolidin-1-yl-ethyl)-1-o-tolyl-1,3,8-triaza-spiro[4.5]decan-4-one], for which the Ki is 8.32 nM.

Consider `CN1CN(c2ccccc2Cl)C2(CCN(C(=O)c3cc(C(F)(F)F)cc(C(F)(F)F)c3)CC2)C1=O` [Example 70, 8-(3,5-Bis-trifluoromethyl-benzoyl)-1-(2-chloro-phenyl)-3-methyl-1,3,8-triaza-spiro[4.5]decan-4-one], for which the Ki was 4.27 nM.

Consider `Cc1ccccc1C1=CN(C)C(=O)C12CCN(C(=O)c1cc(C(F)(F)F)cc(C(F)(F)F)c1)CC2` [Example 170, 8-(3,5-Bis-trifluoromethyl-benzoyl)-2-methyl-4-o-tolyl-2,8-diaza-spiro[4.5]dec-3-en-1-one], for which the Ki is 11 nM.

Tested on in a further series: not given
Assay: not given
Settings: not given
`O=C(c1cc(C(F)(F)F)cc(C(F)(F)F)c1)N1CCC2(CC1)C(=O)NC(=O)N2c1ccccc1Cl` came in with a melting point of 153 to 154 °C.

`O=C(c1cc(C(F)(F)F)cc(C(F)(F)F)c1)N1CCC2(CC1)C(=O)NCN2c1ccccc1` [Example 1, 8-(3,5-Bis-trifluoromethyl-benzoyl)-1-phenyl-1,3,8-triaza-spiro[4.5]decan-4-one] registered a melting point of 251 °C.

`O=C(c1cc(C(F)(F)F)cc(C(F)(F)F)c1)N1CCC2(CC1)C(=O)N(c1cc(Cl)ncn1)CN2c1ccccc1` [Example 61, 8-(3,5-Bis-trifluoromethyl-benzoyl)-3-(6-chloro-pyrimidin-4-yl)-1-phenyl-1,3,8-triaza-spiro[4.5]decan-4-one] displayed a melting point of 212 to 214 °C.

`O=C(c1cc(C(F)(F)F)cc(C(F)(F)F)c1)N1CCC2(CC1)C(=O)NCN2c1cccc(Cl)c1` [Example 63, 8-(3,5-Bis-trifluoromethyl-benzoyl)-1-(3-chloro-phenyl)-1,3,8-triaza-spiro[4.5]decan-4-one] had a melting point of 235 to 236 °C.

Compound `O=C(c1cc(C(F)(F)F)cc(C(F)(F)F)c1)N1CCC2(CC1)C(=O)NCN2c1ccc(Cl)cc1` [Example 64, 8-(3,5-Bis-trifluoromethyl-benzoyl)-1-(4-chloro-phenyl)-1,3,8-triaza-spiro[4.5]decan-4-one] displayed a melting point of 233 to 235 °C.

Regarding `O=C(c1cc(C(F)(F)F)cc(C(F)(F)F)c1)N1CCC2(CC1)C(=O)NCN2c1ccc(Cl)c(Cl)c1` [Example 65, 8-(3,5-Bis-trifluoromethyl-benzoyl)-1-(3,4-dichloro-phenyl)-1,3,8-triaza-spiro[4.5]decan-4-one], the melting point lay within 220 to 222 °C.

Consider `Cc1ccccc1N1CNC(=O)C12CCN(C(=O)c1cc(C(F)(F)F)cc(C(F)(F)F)c1)CC2` [Example 66, 8-(3,5-Bis-trifluoromethyl-benzoyl)-1-o-tolyl-1,3,8-triaza-spiro[4.5]decan-4-one], for which the melting point was in the range of 164 to 168 °C.

With `O=C(c1cc(C(F)(F)F)cc(C(F)(F)F)c1)N1CCC2(CC1)C(=O)NCN2c1ccccc1Cl` [Example 67, 8-(3,5-Bis-trifluoromethyl-benzoyl)-1-(2-chloro-phenyl)-1,3,8-triaza-spiro[4.5]decan-4-one], the melting point was 157 to 159 °C.

The record behind these values is patent US6482829B2, “Substituted heterocyclic siprodecane compound active as an antagonist of neurokinin 1 receptor” (Hoffmann-La Roche Inc., priority 2000, dated 2002).
